Experiment: xn = mol fraction of the nth substance listed

COCCOC + O
Settings	viscosity [mPa·s]
298 K, 101 kPa, x2 = 0.222	0.5134
298 K, 101 kPa, x2 = 0.353	0.6057
298 K, 101 kPa, x2 = 0.3777	0.6324
298 K, 101 kPa, x2 = 0.4685	0.7626
298 K, 101 kPa, x2 = 0.5569	0.943
298 K, 101 kPa, x2 = 0.711	1.481
298 K, 101.3 kPa, x1 = 0.019	1.166
298 K, 101.3 kPa, x1 = 0.0608	1.748
298 K, 101.3 kPa, x1 = 0.1011	2.092
298 K, 101.3 kPa, x1 = 0.1521	2.104
298 K, 101.3 kPa, x1 = 0.1999	1.935
298 K, 101.3 kPa, x1 = 0.2992	1.432
298 K, 101.3 kPa, x1 = 0.4048	1.074
298 K, 101.3 kPa, x1 = 0.597	0.684
298 K, 101.3 kPa, x1 = 0.801	0.506
298.15 K, 101.33 kPa, x1 = 0.007	1.018
298.15 K, 101.33 kPa, x1 = 0.0184	1.189
298.15 K, 101.33 kPa, x1 = 0.0306	1.376
298.15 K, 101.33 kPa, x1 = 0.0542	1.712
298.15 K, 101.33 kPa, x1 = 0.0775	1.968
298.15 K, 101.33 kPa, x1 = 0.1063	2.146
298.15 K, 101.33 kPa, x1 = 0.1301	2.252
298.15 K, 101.33 kPa, x1 = 0.1654	2.164
298.15 K, 101.33 kPa, x1 = 0.2002	2.001
298.15 K, 101.33 kPa, x1 = 0.2402	1.782
298.15 K, 101.33 kPa, x1 = 0.2886	1.55
298.15 K, 101.33 kPa, x1 = 0.3482	1.256
298.15 K, 101.33 kPa, x1 = 0.3836	1.128
298.15 K, 101.33 kPa, x1 = 0.4226	1.005
298.15 K, 101.33 kPa, x1 = 0.4689	0.886
298.15 K, 101.33 kPa, x1 = 0.5203	0.78
298.15 K, 101.33 kPa, x1 = 0.5617	0.707
298.15 K, 101.33 kPa, x1 = 0.613	0.638
298.15 K, 101.33 kPa, x1 = 0.6418	0.605
298.15 K, 101.33 kPa, x1 = 0.6575	0.586
298.15 K, 101.33 kPa, x1 = 0.7264	0.536
298.15 K, 101.33 kPa, x1 = 0.8227	0.491
298.15 K, 101.33 kPa, x1 = 0.8646	0.471
298.15 K, 101.33 kPa, x1 = 0.9633	0.433
303.15 K, 101 kPa, x1 = 0.0471	1.344
303.15 K, 101 kPa, x1 = 0.0951	1.725
303.15 K, 101 kPa, x1 = 0.1421	1.837
303.15 K, 101 kPa, x1 = 0.1877	1.726
303.15 K, 101 kPa, x1 = 0.2322	1.562
303.15 K, 101 kPa, x1 = 0.277	1.373
303.15 K, 101 kPa, x1 = 0.3598	1.093
303.15 K, 101 kPa, x1 = 0.4455	0.8759
303.15 K, 101 kPa, x1 = 0.5389	0.7129
303.15 K, 101 kPa, x1 = 0.6952	0.5462
303.15 K, 101 kPa, x1 = 0.803	0.4759
303.15 K, 101 kPa, x1 = 0.9001	0.4317
308.15 K, 101 kPa, x1 = 0.0471	1.174
308.15 K, 101 kPa, x1 = 0.0951	1.487
308.15 K, 101 kPa, x1 = 0.1421	1.583
308.15 K, 101 kPa, x1 = 0.1877	1.493
308.15 K, 101 kPa, x1 = 0.2322	1.375
308.15 K, 101 kPa, x1 = 0.277	1.214
308.15 K, 101 kPa, x1 = 0.3598	0.98
308.15 K, 101 kPa, x1 = 0.4455	0.7944
308.15 K, 101 kPa, x1 = 0.5389	0.6553
308.15 K, 101 kPa, x1 = 0.6952	0.5103
308.15 K, 101 kPa, x1 = 0.803	0.448
308.15 K, 101 kPa, x1 = 0.9001	0.4079
313.15 K, 101 kPa, x1 = 0.0471	1.035
313.15 K, 101 kPa, x1 = 0.0951	1.302
313.15 K, 101 kPa, x1 = 0.1421	1.377
313.15 K, 101 kPa, x1 = 0.1877	1.308
313.15 K, 101 kPa, x1 = 0.2322	1.211
313.15 K, 101 kPa, x1 = 0.277	1.081
313.15 K, 101 kPa, x1 = 0.3598	0.886
313.15 K, 101 kPa, x1 = 0.4455	0.7267
313.15 K, 101 kPa, x1 = 0.5389	0.6061
313.15 K, 101 kPa, x1 = 0.6952	0.4784
313.15 K, 101 kPa, x1 = 0.803	0.4217
313.15 K, 101 kPa, x1 = 0.9001	0.3865
318.15 K, 101 kPa, x1 = 0.0471	0.9228
318.15 K, 101 kPa, x1 = 0.0951	1.143
318.15 K, 101 kPa, x1 = 0.1421	1.208
318.15 K, 101 kPa, x1 = 0.1877	1.157
318.15 K, 101 kPa, x1 = 0.2322	1.07
318.15 K, 101 kPa, x1 = 0.277	0.9692
318.15 K, 101 kPa, x1 = 0.3598	0.8048
318.15 K, 101 kPa, x1 = 0.4455	0.6672
318.15 K, 101 kPa, x1 = 0.5389	0.5616
318.15 K, 101 kPa, x1 = 0.6952	0.4497
318.15 K, 101 kPa, x1 = 0.803	0.3986
318.15 K, 101 kPa, x1 = 0.9001	0.367
323.15 K, 101 kPa, x1 = 0.0471	0.8291
323.15 K, 101 kPa, x1 = 0.0951	1.013
323.15 K, 101 kPa, x1 = 0.1421	1.07
323.15 K, 101 kPa, x1 = 0.1877	1.034
323.15 K, 101 kPa, x1 = 0.2322	0.9565
323.15 K, 101 kPa, x1 = 0.277	0.8719
323.15 K, 101 kPa, x1 = 0.3598	0.7336
323.15 K, 101 kPa, x1 = 0.4455	0.6155
323.15 K, 101 kPa, x1 = 0.5389	0.5232
323.15 K, 101 kPa, x1 = 0.6952	0.4226
323.15 K, 101 kPa, x1 = 0.803	0.3769
323.15 K, 101 kPa, x1 = 0.9001	0.3479

Source: the CheMixHub viscosity set
